From US7145009B2, “Pirazino(aza)indole derivatives” (priority 1999, dated 2006)
pEC50, pKi: −log10 of the molar value. Counter-ions that a name gives are not always drawn. Like-named read-outs stand apart in the source and are kept apart here.

What was measured:
[1] = molecular target: T1, h5-HT2C receptor (CHO cells) (Homo sapiens, UniProt P28335); assay: Functional activity, FLIPR calcium assay, h5-HT2C; format: cell-based; details: for Emax: CHO, read-out: h5-HT2C Relative Efficacy
T1 construct: expressed in transfected cells; host or cells: CHO cells
T1 sequence (P28335 33-458): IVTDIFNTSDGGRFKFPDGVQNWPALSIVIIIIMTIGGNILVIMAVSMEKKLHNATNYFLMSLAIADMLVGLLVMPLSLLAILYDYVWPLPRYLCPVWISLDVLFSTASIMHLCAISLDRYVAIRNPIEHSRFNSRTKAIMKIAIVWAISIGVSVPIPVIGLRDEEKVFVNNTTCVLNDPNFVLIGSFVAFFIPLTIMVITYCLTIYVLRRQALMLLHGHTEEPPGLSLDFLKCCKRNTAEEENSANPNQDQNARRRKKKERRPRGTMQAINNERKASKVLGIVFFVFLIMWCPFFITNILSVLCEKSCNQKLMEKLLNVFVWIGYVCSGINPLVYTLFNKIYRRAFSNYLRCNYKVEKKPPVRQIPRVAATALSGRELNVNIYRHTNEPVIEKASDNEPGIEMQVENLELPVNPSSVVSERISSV
Method: (§1) The functional activity of compounds of formula (I) was assayed using a Fluorimetric Imaging Plate reader (FLIPR):
(§2) CHO cells expressing either the h5-HT2C or h5-HT2A receptors were counted and plated into standard 96 well microtitre plates before the day of testing to give a confluent monolayer. The following day the cells were dye loaded with the calcium sensitive dye Fluo 3-AM by incubation with serum free culture maintenance media containing pluronic acid and Fluo 3-AM dissolved in DMSO at 37° C. in a CO2 incubator at 95% humidity for approximately 90 minutes. Unincorporated dye was removed by washing with Hanks balanced salt solution containing 20 mM HEPES and 2.5 mM probenecid (the assay buffer) using an automated cell washer to leave a total volume of 100 μl/well.
(§3) The drug (dissolved in 50 μl of assay buffer) was added at a rate of 70 μl/sec to each well of the FLIPR 96 well plate during fluorescence measurements. The measurements are taken at 1 sec intervals and the maximum fluorescent signal was measured (approx 10–15 secs after drug addition) and compared with the response produced by 10 μM 5-HT (defined as 100%) to which it is expressed as a percentage response (relative efficacy). Dose response curves were constructed using Graphpad Prism (Graph Software Inc.).

[2] = molecular target: T2, h5-HT2A receptor (CHO cells) (Homo sapiens, UniProt P28223); assay: Functional activity, FLIPR calcium assay, h5-HT2A; format: cell-based; details: for Emax: CHO, read-out: h5-HT2A Relative Efficacy
T2 construct: expressed in transfected cells; host or cells: CHO cells
T2 sequence (P28223 whole entry): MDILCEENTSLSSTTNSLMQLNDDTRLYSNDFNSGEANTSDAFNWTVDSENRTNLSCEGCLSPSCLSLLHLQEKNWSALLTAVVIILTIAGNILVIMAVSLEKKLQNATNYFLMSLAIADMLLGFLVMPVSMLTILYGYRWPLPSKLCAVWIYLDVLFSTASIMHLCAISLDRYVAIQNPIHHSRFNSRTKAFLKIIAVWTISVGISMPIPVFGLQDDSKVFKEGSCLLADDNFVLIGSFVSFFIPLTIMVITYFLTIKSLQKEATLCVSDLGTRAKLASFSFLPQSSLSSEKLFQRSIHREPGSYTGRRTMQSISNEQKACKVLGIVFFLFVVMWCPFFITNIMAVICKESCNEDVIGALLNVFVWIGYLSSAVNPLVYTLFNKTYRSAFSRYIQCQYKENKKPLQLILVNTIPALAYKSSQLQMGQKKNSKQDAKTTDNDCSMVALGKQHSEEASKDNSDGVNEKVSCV
Method: as §1, §2, §3

5-HT1A receptors = molecular target: T3, 5-HT1A receptors (Homo sapiens, UniProt P08908); details: literature report; cited from earlier work
T3 sequence (P08908 1-422): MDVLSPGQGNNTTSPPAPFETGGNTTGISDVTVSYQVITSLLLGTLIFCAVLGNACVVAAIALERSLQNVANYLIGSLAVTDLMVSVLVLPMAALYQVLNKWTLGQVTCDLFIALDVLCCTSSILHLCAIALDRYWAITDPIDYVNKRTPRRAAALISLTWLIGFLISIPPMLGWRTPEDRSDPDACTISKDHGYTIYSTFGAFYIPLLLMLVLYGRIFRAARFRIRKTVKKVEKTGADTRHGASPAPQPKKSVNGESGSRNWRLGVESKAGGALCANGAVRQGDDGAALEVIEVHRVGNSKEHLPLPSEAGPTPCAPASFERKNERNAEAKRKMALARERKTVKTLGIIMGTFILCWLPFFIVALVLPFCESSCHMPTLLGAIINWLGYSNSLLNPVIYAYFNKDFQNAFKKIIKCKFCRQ

[3] = molecular target: T4, 5-HT2c receptors in a CHO cell line (Homo sapiens, UniProt P28335); assay: Binding to 5-HT2c receptor, [3H]-5-HT, Method (a); details: read-out: Ki (2C)
T4 construct: expressed in transfected cells; host or cells: CHO cell line
T4 sequence (P28335 33-458): T1 sequence (P28335 33-458)
Method: (§4) The binding of compounds of formula (I) to serotonin receptors was determined in vitro by standard methods. The preparations were investigated in accordance with the assays given hereinafter.
Method (a): For the binding to the 5-HT2c receptor the 5-HT2c receptors were radiolabelled with [^3H]-5-HT. The affinity of the compounds for 5-HT2c receptors in a CHO cell line was determined according to the procedure of D. Hoyer, G. Engel and H. O. Kalkman, European J. Pharmacol., 1985, 118, 13–23.

[4] = molecular target: T5, human 5-HT2B receptors in a CHO cell line (Homo sapiens, UniProt P41595); assay: Binding to 5-HT2B receptor, [3H]-5-HT, Method (b); details: read-out: Ki (2B)
T5 construct: expressed in transfected cells; host or cells: CHO cell line
T5 sequence (P41595 whole entry): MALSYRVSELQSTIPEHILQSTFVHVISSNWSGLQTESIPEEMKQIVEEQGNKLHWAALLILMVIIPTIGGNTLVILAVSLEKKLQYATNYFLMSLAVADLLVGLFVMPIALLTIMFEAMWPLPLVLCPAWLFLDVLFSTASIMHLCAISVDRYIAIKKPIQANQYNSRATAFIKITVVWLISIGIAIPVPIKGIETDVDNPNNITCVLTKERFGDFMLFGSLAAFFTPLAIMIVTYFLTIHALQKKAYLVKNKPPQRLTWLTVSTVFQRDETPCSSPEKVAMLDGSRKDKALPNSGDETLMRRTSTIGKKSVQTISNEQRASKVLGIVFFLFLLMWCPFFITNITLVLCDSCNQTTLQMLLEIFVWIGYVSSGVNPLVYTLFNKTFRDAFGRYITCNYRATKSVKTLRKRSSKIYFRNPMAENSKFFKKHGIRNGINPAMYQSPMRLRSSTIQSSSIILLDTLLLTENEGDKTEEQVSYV
Method: as §4
Method (b): For the binding to the 5-HT2B receptor the 5-HT2B receptors were radiolabelled with [^3H]-5-HT. The affinity of the compounds for human 5-HT2B receptors in a CHO cell line was determined according to the procedure of K. Schmuck, C. Ullmer, P. Engels and H. Lubbett, FEBS Lett., 1994, 342, 85–90.

[5] = molecular target: T6, 5-HT2A receptors in a CHO cell line (Homo sapiens, UniProt P28223); assay: Binding to 5-HT2A receptor, [125I]-DOI, Method (c); details: read-out: Ki (2A)
T6 construct: expressed in transfected cells; host or cells: CHO cell line
T6 sequence (P28223 whole entry): as the sequence (P28223 whole entry) above
Method: as §4
Method (c): For the binding to the 5-HT2A receptor the 5-HT2A receptors were radiolabelled with […]. The affinity of the compounds for 5-HT2A receptors in a CHO cell line was determined according to the procedure of D. J. McKenna and S. J. Peroutka, J. Neurosci., 1989, 9/10, 3482–90.

[6] = tested on: 5-HT2c syndrome (splayed limbs, hunched posture, retro-pulsion); assay: 5-HT2c syndrome, in vivo efficacy of 5-HT2C agonists; details: rats, 1 mg/kg s.c.
Method: The efficacy of 5-HT2C agonists was assessed for ability to induce a specific syndrome.
The 5-HT2c syndrome is a rapid screening method to assess the in vivo efficacy of 5-HT2c agonists through their ability to induce three specific behaviours in rats. The animals are dosed with either a positive control (mCPP), test compound or vehicle, either s.c. or p.o. The animals are observed on an open bench, typically 30, 60 and 180 minutes and the degree of syndrome is assessed over a two minute period on a scale of 0–3 depending on the presence and severity of splayed limbs, hunched posture and retro-pulsion, the three specific behaviours which constitute the syndrome. Data is analysed using Kruskal-Wallis Analysis of Variance followed with appropriate post-hoc tests. All statistical analysis are conducted using Excel version 7.0 (Microsoft Corp.) and Statistica version 5.0 (Stasoft, Inc.).

food intake = details: rats, literature reports; cited from earlier work
[7] = FLIPR, CHO cells, Fluo 3-AM, read-out: h5-HT2C EC50

Row | Compound | pEC50 [1] | Emax [1] [%] | pEC50 [2] | Emax [2] [%] | melting point | further results
1 | Clc1ccc2c(c1)N1CCNC[C@H]1C2 [Example 8, (10aR) 7-Chloro-1,2,3,4,10,10a-hexahydropyrazino[1,2-a]indole hydrochloride] | 8.52 | 87 | 7.00 | 59 | – | –
2 | Clc1cccc2c1CC1CNCCN21 (racemic) (as salt: hydrochloride) [Example 3, (RS) 9-Chloro-1,2,3,4,10,10a-hexahydropyrazino[1,2-a]indole hydrochloride] | – | – | – | – | 265 to 269 °C (dec.) | –
3 | Cc1cc2c(cc1Cl)N1CCNCC1C2 (racemic) [Example 5, (RS) 7-Chloro-8-methyl-1,2,3,4,10,10a-hexahydropyrazino[1,2-a]indole fumarate] | 7.70 | 93 | 6.96 | 87 | – | –
4 | Clc1ccc2c(c1)CC1CNCCN21 (racemic) [Example 2, (RS) 8-Chloro-1,2,3,4,10,10a-hexahydropyrazino[1,2-a]indole hydrochloride] | – | 84 | 6.18 | 88 | – | pEC50 [1, 7]: 6.79
5 | Clc1ccc2c(c1)N1CCNCC1C2 (racemic) (as salt: hydrochloride) [Example 1, (RS) 7-Chloro-1,2,3,4,10,10a-hexahydropyrazino[1,2-a]indole hydrochloride] | – | – | – | – | 235 °C (dec.) | –
6 | Clc1cccc2c1CC1CNCCN21 (racemic) [Example 3, (RS) 9-Chloro-1,2,3,4,10,10a-hexahydropyrazino[1,2-a]indole hydrochloride] | – | 82 | 5.99 | 49 | – | pEC50 [1, 7]: 6.85
7 | CSc1ccc2c(c1)N1CCNCC1C2 (racemic) (as salt: fumarate) [Example 13, (RS) 7(Methylthio)-1,2,3,4,10,10a-hexahydropyrazino[1,2-a]indole fumarate] | – | – | – | – | 196 to 198 °C | –
8 | Brc1ccc2c(c1)N1CCNCC1C2 (racemic) [Example 4, (RS) 7-Bromo-1,2,3,4,10,10a-hexahydropyrazino[1,2-a]indole hydrochloride] | 7.89 | 100 | 6.61 | 58 | – | –
9 | Fc1cc2c(cc1Cl)N1CCNCC1C2 (racemic) (as salt: fumarate) [Example 12, (RS) 7-Chloro-8-fluoro-1,2,3,4,10,10a-hexahydropyrazino[1,2-a]indole hemifumarate] | – | – | – | – | 195 to 197 °C | –
10 | c1ccc2c(c1)CC1CNCCN21 (stereo not shown) [1,2,3,4,10,10a-Hexahydropyrazino[1,2-a]indole] | – | – | – | – | – | selectivity for 5-HT1A receptors over 5-HT2 (binding affinity) (5-HT1A receptors): ten fold
11 | Clc1ccc2c(c1)CC1CNCCN21 (racemic) (as salt: hydrochloride) [Example 2, (RS) 8-Chloro-1,2,3,4,10,10a-hexahydropyrazino[1,2-a]indole hydrochloride] | – | – | – | – | 258 to 262 °C (dec.) | –
12 | C[C@H]1CN2c3cc(Cl)ccc3C[C@@H]2CN1 (as salt: hydrochloride) [Example 11, (3S,10aR) 7-Chloro-3-methyl-1,2,3,4,10,10a-hexahydropyrazino[1,2-a]indole hydrochloride] | – | – | – | – | 265 °C (dec.) | –
13 | Brc1ccc2c(c1)N1CCNCC1C2 (racemic) (as salt: hydrochloride) [Example 4, (RS) 7-Bromo-1,2,3,4,10,10a-hexahydropyrazino[1,2-a]indole hydrochloride] | – | – | – | – | 243 to 245 °C | –
14 | Clc1ccc2c(c1)N1CCNC[C@@H]1C2 [Example 7, (10aS) 7-Chloro-1,2,3,4,10,10a-hexahydropyrazino[1,2-a]indole hydrochloride] | 6.79 | 86 | 6.84 | 67 | – | –
15 | Clc1ccc2c(n1)N1CCNCC1C2 (racemic) (as salt: fumarate) [Example 6, (RS) 7-Chloro-1,2,3,4,10,10a-6-aza-hexahydropyrazino[1,2-a]-7-indole fumarate] | – | – | – | – | 148 °C | –
16 | CSc1ccc2c(c1)N1CCNCC1C2 (racemic) [Example 13, (RS) 7(Methylthio)-1,2,3,4,10,10a-hexahydropyrazino[1,2-a]indole fumarate] | 7.07 | 87 | 6.75 | 59 | – | –
17 | Clc1ccc2c(n1)N1CCNCC1C2 (racemic) [Example 6, (RS) 7-Chloro-1,2,3,4,10,10a-6-aza-hexahydropyrazino[1,2-a]-7-indole fumarate] | – | 100 | 5.78 | 47 | – | pEC50 [1, 7]: 6.76
18 | C[C@H]1CN2c3cc(Cl)ccc3C[C@@H]2CN1 [Example 11, (3S,10aR) 7-Chloro-3-methyl-1,2,3,4,10,10a-hexahydropyrazino[1,2-a]indole hydrochloride] | 7.24 | 92 | 6.28 | 38 | – | –
19 | Clc1ccc2c(c1)N1CCNCC1C2 (racemic) [Example 1, (RS) 7-Chloro-1,2,3,4,10,10a-hexahydropyrazino[1,2-a]indole hydrochloride] | 7.74 | 91 | 6.29 | 53 | – | pKi [3]: 7.51; pKi [4]: 7.49; pKi [5]: 7.28; time for which significant pharmacological efficacy is maintained (5-HT2c syndrome) [6]: at least 180 minutes
20 | Fc1cc2c(cc1Cl)N1CCNCC1C2 (racemic) [Example 12, (RS) 7-Chloro-8-fluoro-1,2,3,4,10,10a-hexahydropyrazino[1,2-a]indole hemifumarate] | 7.66 | 92 | 6.97 | 74 | – | –
21 | Clc1cccc(N2CCNCC2)c1 [mCPP, m-chlorophenylpiperazine] | – | – | – | – | – | effect on food intake (food intake): reduce food intake
